Results taken from patent US11434222B2, “MAGL inhibitors” (H. LUNDBECK A/S, priority 2020, dated 2022).
Like-named read-outs stand apart in the source and are kept apart here.

Assays:
[1] = system: tonic hind limb extensor seizure (MEST); assay: Maximal electroshock seizure threshold (MEST) model in the rat; assay type: in vivo; conditions: 10 mg/kg p.o., 240 min pre-treatment, FIG. 3 and FIG. 4
Protocol: In the MEST model, a low-intensity electrical current of high frequency and short duration is applied to induce tonic convulsions.
Animals were randomly assigned to vehicle, compound treatment or Lamotrigine dose groups. Animals were dosed at 5 mL/kg according to treatment groups (n=12 or 16/group), with either vehicle (0.5% MC) p.o. for Example 6, vehicle (10% HP-b-CD) for Example 8, test compound at 10 mg/kg p.o. 240 min pre-treatment time, or Lamotrigine p.o. 360 min pre-treatment time.
Rats were individually assessed for production of a tonic hind limb extensor seizure following a single corneally delivered electroshock of 0.3 second duration, using an ‘up and down method’ of shock titration (Kimball A W et al., 1957). Thus, the first rat within a treatment group was given a shock at the expected or estimated CC50 current (current producing tonic hind limb extensor seizures in 50% of animals). […] This procedure was continued for all rats within a treatment group. Induction of seizure was measured as an all-or-nothing effect scored as either present (+) or absent (0) for each animal. […]
Significant differences between drug-treated animals and controls were assessed according to Litchfield and Wilcoxon (1949) or One-Way ANOVA followed by Dunnett's multiple comparisons test.

[2] = system: kainic acid induced seizures; assay: Kainic acid seizure model in the rat; assay type: in vivo; conditions: for anticonvulsant effects in the kainic acid seizure test: rat; for magnitude of the effects in the kainic acid seizure test compared with reference: middle-high doses, reference Diazepam 16 mg/kg p.o.
Protocol: Kainic acid is an analog of the excitatory neurotransmitter, glutamate and acts as an agonist of kainic acid receptors. After systemic injection, kainic acid induces prolonged excitatory responses with many of the features of human temporal lobe epilepsy.
Rats, placed in individual Plexiglas cages (33×21×18 cm), are injected with kainic acid (20 mg/kg i.p.). The occurrences of the following symptoms are noted over a 120-minute period 30 minutes after kainic acid injection: forelimb clonus, rearings and rearings with falling, clonic convulsions, tonic convulsions and death. The presence of each symptom and the latencies to the first appearance of the symptoms are measured. The number of forelimb clonus is counted.
12 rats are studied per group. The test is performed partially blind.
The test substances will be evaluated at multiple doses, administered p.o. 240 minutes before the test, and compared with the corresponding vehicle control group (Group 2, administered with 10% HP-b-CD in distilled water, p.o. 240 minutes before the test).
Example 6 was evaluated at 0.3, 1, 3 and 10 mg/kg, and Example 8 was evaluated at 1, 3 and 10 mg/kg, administered p.o. 4 hours before the test, and compared with a vehicle control group (administered with 10% HP-b-CD, p.o. 4 hours before the test).
Diazepam (16 mg/kg) used as reference substance, was administered p.o. 60 minutes before the test (0.5% HP-b-CD) and was compared with vehicle controls.
Quantitative data (latencies) with the test substance was analyzed by comparing treated groups with vehicle control using Kruskal-Wallis test followed by Mann-Whitney U test. Quantitative data with the reference substance will be analysed using Mann-Whitney U test.
Quantal data (frequencies) were analyzed by comparing treated groups with vehicle control using Fisher's Exact Probability tests.

[3] = Kinetic solubility in PBS; assay type: physicochemical; conditions: aqueous buffer, kinetic from dmso stock
Outline: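 Solubility measured in PBS at pH 2.0 and pH 7.4, in duplicate, starting from 10 mM DMSO stock; shaken 2 h at RT at 1,100 RPM. Filtrate diluted and quantified by LC-MS/MS (positive MRM) against a DMSO standard of known concentration.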

[4] = In vitro human hepatocyte stability; assay type: in vitro ADME; conditions: cryopreserved human hepatocytes (pooled donor), human hepatocytes 0.5×10^6 cells/mL, read-out: Scaled-up unbound CLint
[5] = PBS pH 2.0, RT, read-out: pH 2 Solubility (kinetic)
[6] = PBS pH 7.4, RT, read-out: pH 7.4 Solubility (kinetic)

| Structure (SMILES) | anticonvulsant activity in the MEST (seizure threshold CC50) [1] | anticonvulsant effects in the kainic acid seizure test ([2]; dose-range 0.3-10 mg/kg p.o. 4 hours before the test) | magnitude of the effects in the kainic acid seizure test compared with reference [2] | solubility kinetic at 2 h [3, 5] [µM] | solubility kinetic at 2 h [3, 6] [µM] | CLint scaled at 1 μM [4] [mL/min/kg] | anticonvulsant effects in the kainic acid seizure test ([2]; dose-range 1-10 mg/kg p.o. 4 hours before the test) |
| --- | --- | --- | --- | --- | --- | --- | --- |
| O=C(Nc1cccnn1)[C@H]1CC12CCN(C(=O)OC(C(F)(F)F)C(F)(F)F)CC2 [Example 6, 1,1,1,3,3,3-hexafluoropropan-2-yl (S)-1-(pyridazin-3-ylcarbamoyl)-6-azaspiro[2.5]octane-6-carboxylate] | anticonvulsant activity | clear anticonvulsant effects | close to those observed with the reference substance, Diazepam | 240 | 106 | 5.79 | – |
| O=C(NC1CCOCC1)[C@H]1CC12CCN(C(=O)OC(C(F)(F)F)C(F)(F)F)CC2 [Example 8, 1,1,1,3,3,3-hexafluoropropan-2-yl (S)-1-[(oxan-4-yl)carbamoyl]-6-azaspiro[2.5]octane-6-carboxylate] | anticonvulsant activity | – | close to those observed with the reference substance, Diazepam | 308 | 256 | 7.75 | clear anticonvulsant effects |
